Measurements: patent US20130317037A1, “METHOD OF ADMINISTRATION AND TREATMENT” (GlaxoSmithKline Intellectual Property Development Limited, priority 2010, published 2013)
Where two headings read alike, the source gives them in different places.

How the values were obtained:
Type in all cases: cell-based
[1] = test system: HCC1395; experiment: cells
Description: (§1) From the stock concentration, 8 serial dilutions (1:5) were made with DMSO.
(§2) Day −1: Plate cells in 100 μl volume in 96 well plate. • Note: Cell number seeded adjusted for growth characteristics, so that at time of assay for proliferation following three-day drug treatment, the control wells should still be in log-growth phase (sub-confluent). Day 0: Drug added to plate for treatment. • A time 0 plate was processed for the proliferation assay to establish a baseline reading at time when drug was added.
(§3) LBNL are following the protocols set up by the NCI/NIH DTP Human Tumor Cell Line Screen Process (http://dtp.nci.nih.gov/branches/btb/ivclsp.html) and summarized below.
(§4) [(Ti−Tz)/(C−Tz)]×100 for concentrations for which Ti>/=Tz
(§5) [(Ti−Tz)/(C−Tz)]×100=50, • which is the drug concentration resulting in a 50% reduction in the net growth in control cells during the drug incubation. TGI: Total growth inhibition is calculated from
(§6) Ti=Tz. • The drug concentration resulting in total growth inhibition (down to the ‘time 0’ baseline). LC50: Net loss of cell growth at 50% is calculated from
(§7) [(Ti−Tz)/Tz]×100=−50. • The concentration of drug resulting in a 50% reduction in the cell number at the end of the drug treatment as compared to that at the beginning (time 0) indicating a net loss of cells following treatment.
(§8) Values are calculated for each of these three parameters if the level of activity is reached; however, if the effect is not reached or is exceeded, the value for that parameter is expressed as greater or less than the maximum or minimum concentration tested.

[2] = test system: HCC1419; experiment: cells
Description: as §1, §2, §3, §4, §5, §6, §7, §8

[3] = test system: M4A4; experiment: cells
Description: as §1, §2, §3, §4, §5, §6, §7, §8

[4] = test system: SKBR3; experiment: cells
Description: as §1, §2, §3, §4, §5, §6, §7, §8

[5] = test system: HCC3153; experiment: cells
Description: as §1, §2, §3, §4, §5, §6, §7, §8

[6] = test system: 600MPE; experiment: cells
Description: as §1, §2, §3, §4, §5, §6, §7, §8

[7] = test system: MX-1; experiment: cells
Description: as §1, §2, §3, §4, §5, §6, §7, §8

[8] = test system: SUM229PE; experiment: cells
Description: as §1, §2, §3, §4, §5, §6, §7, §8

[9] = test system: T47D; experiment: cells
Description: as §1, §2, §3, §4, §5, §6, §7, §8

[10] = test system: BT20; experiment: cells
Description: as §1, §2, §3, §4, §5, §6, §7, §8

[11] = test system: HCC2185; experiment: cells
Description: as §1, §2, §3, §4, §5, §6, §7, §8

[12] = test system: HCC1428; experiment: cells
Description: as §1, §2, §3, §4, §5, §6, §7, §8

[13] = test system: MDAMB134; experiment: cells
Description: as §1, §2, §3, §4, §5, §6, §7, §8

[14] = test system: HCC1500; experiment: cells
Description: as §1, §2, §3, §4, §5, §6, §7, §8

[15] = test system: HCC38; experiment: cells
Description: as §1, §2, §3, §4, §5, §6, §7, §8

[16] = test system: MCF10A; experiment: cells
Description: as §1, §2, §3, §4, §5, §6, §7, §8

[17] = test system: MDAMB453; experiment: cells
Description: as §1, §2, §3, §4, §5, §6, §7, §8

[18] = in vitro; details: human
Description: as §1, §2, §3, §4, §5, §6, §7, §8

[19] = test system: BT474; experiment: cells
Description: as §1, §2, §3, §4, §5, §6, §7, §8

[20] = test system: HCC1187; experiment: cells
Description: as §1, §2, §3, §4, §5, §6, §7, §8

[21] = test system: MDAMB157; experiment: cells
Description: as §1, §2, §3, §4, §5, §6, §7, §8

[22] = Homo sapiens, 50% net loss of cells vs time 0, read-out: LC50 (the source's name)
[23] = Homo sapiens, 72 h, three-day drug treatment, read-out: gIC50

Molecule COc1ncc(-c2ccc3nccc(-c4ccnnc4)c3c2)cc1NS(=O)(=O)c1ccc(F)cc1F [Compound B, 2,4-difluoro-N-{2-(methyloxy)-5-[4-(4-pyridazinyl)-6-quinolinyl]-3-pyridinyl}benzenesulfonamide] has a TGI ([1]; HCC1395, total growth inhibition) of 358.6 nM, an IC50 ([1]; Homo sapiens, 72 h, HCC1395, three-day drug treatment, read-out: gIC50) of 50.3 nM and a CC50 ([1]; Homo sapiens, HCC1395, 50% net loss of cells vs time 0, read-out: LC50 (the source's name)) of 26700 nM. The TGI ([2]; HCC1419, total growth inhibition) was 5.2 nM, the IC50 ([2]; Homo sapiens, 72 h, HCC1419, three-day drug treatment, read-out: gIC50) was 1.5 nM and the CC50 ([2]; Homo sapiens, HCC1419, 50% net loss of cells vs time 0, read-out: LC50 (the source's name)) was 514 nM. The IC50 ([3]; Homo sapiens, 72 h, M4A4, three-day drug treatment, read-out: gIC50) was 30.2 nM, the CC50 ([3]; Homo sapiens, M4A4, 50% net loss of cells vs time 0, read-out: LC50 (the source's name)) was > 33000 nM and the TGI ([3]; M4A4, total growth inhibition) was 281.8 nM. The IC50 ([4]; Homo sapiens, SK-BR-3, 72 h, SKBR3, three-day drug treatment, read-out: gIC50) was 3.2 nM, the TGI ([4]; SKBR3, total growth inhibition) was 199.5 nM and the TGI ([5]; HCC3153, total growth inhibition) was 281.8 nM. The IC50 ([5]; Homo sapiens, 72 h, HCC3153, three-day drug treatment, read-out: gIC50) was 38.9 nM, the CC50 ([5]; Homo sapiens, HCC3153, 50% net loss of cells vs time 0, read-out: LC50 (the source's name)) was ≥ 35500 nM and the CC50 [6, 22] was 875 nM. For the same molecule, the IC50 [6, 23] was 6.8 nM, the TGI ([6]; total growth inhibition) was 33.5 nM and the IC50 ([7]; Homo sapiens, MX1, 72 h, MX-1, three-day drug treatment, read-out: gIC50) was 5.2 nM. It also gave a CC50 ([7]; Homo sapiens, MX1, MX-1, 50% net loss of cells vs time 0, read-out: LC50 (the source's name)) of 251 nM, a TGI ([7]; MX-1, total growth inhibition) of 20.4 nM and a CC50 [8, 22] of 126 nM. For the same molecule, the IC50 [8, 23] was 2.5 nM, the TGI ([8]; total growth inhibition) was 17.4 nM and the CC50 [9, 22] was 1000 nM. The IC50 [9, 23] was 3.7 nM, the TGI ([9]; total growth inhibition) was 19.1 nM and the TGI ([10]; BT20, total growth inhibition) was 95.5 nM. It also gave an IC50 ([10]; Homo sapiens, BT-20, 72 h, BT20, three-day drug treatment, read-out: gIC50) of 14.8 nM, a CC50 ([10]; Homo sapiens, BT-20, BT20, 50% net loss of cells vs time 0, read-out: LC50 (the source's name)) of 468 nM and a TGI ([11]; HCC2185, total growth inhibition) of 10.0 nM. The IC50 ([11]; Homo sapiens, 72 h, HCC2185, three-day drug treatment, read-out: gIC50) was 3.2 nM, the CC50 ([11]; Homo sapiens, HCC2185, 50% net loss of cells vs time 0, read-out: LC50 (the source's name)) was 132 nM and the TGI ([12]; HCC1428, total growth inhibition) was 158.5 nM. It also gave an IC50 ([12]; Homo sapiens, 72 h, HCC1428, three-day drug treatment, read-out: gIC50) of 16.2 nM, a CC50 ([12]; Homo sapiens, HCC1428, 50% net loss of cells vs time 0, read-out: LC50 (the source's name)) of 5250 nM and an IC50 ([13]; Homo sapiens, 72 h, MDAMB134, three-day drug treatment, read-out: gIC50) of 13.2 nM. For the same molecule, the CC50 ([13]; Homo sapiens, MDAMB134, 50% net loss of cells vs time 0, read-out: LC50 (the source's name)) was 224 nM, the TGI ([13]; MDAMB134, total growth inhibition) was 60.3 nM and the TGI ([14]; HCC1500, total growth inhibition) was 371.5 nM. The IC50 ([14]; Homo sapiens, 72 h, HCC1500, three-day drug treatment, read-out: gIC50) was 75.9 nM, the CC50 ([14]; Homo sapiens, HCC1500, 50% net loss of cells vs time 0, read-out: LC50 (the source's name)) was 6500 nM and the TGI ([15]; HCC38, total growth inhibition) was 158.5 nM. For the same molecule, the IC50 ([15]; Homo sapiens, 72 h, HCC38, three-day drug treatment, read-out: gIC50) was 55 nM, the CC50 ([15]; Homo sapiens, HCC38, 50% net loss of cells vs time 0, read-out: LC50 (the source's name)) was 355 nM and the IC50 ([16]; Homo sapiens, MCF-10A, 72 h, three-day drug treatment, read-out: gIC50) was 7.2 nM. The TGI ([16]; total growth inhibition) was 467.7 nM, the IC50 ([17]; Homo sapiens, MDA-MB-453, 72 h, MDAMB453, three-day drug treatment, read-out: gIC50) was 7.8 nM and the CC50 ([17]; Homo sapiens, MDA-MB-453, MDAMB453, 50% net loss of cells vs time 0, read-out: LC50 (the source's name)) was 162 nM. The TGI ([17]; MDAMB453, total growth inhibition) was 54.9 nM, the CC50 at 3 days ([18]; 184A1 breast epithelium cells (HER2−, PIK3CA NA), 184A1, 50% net loss of cells vs time 0, read-out: LC50) was 26700 nM and the CC50 at 3 days ([18]; 184B5 breast epithelium cells (HER2−, PIK3CA NA), 184B5, 50% net loss of cells vs time 0, read-out: LC50) was > 33000 nM. It also gave a CC50 at 3 days ([18]; MCF10A cells (breast epithelium; HER2−; PIK3CA NA), 50% net loss of cells vs time 0, read-out: LC50) of 6700 nM, a CC50 at 3 days ([18]; MCF10F cells (breast epithelium; HER2−; PIK3CA NA), 50% net loss of cells vs time 0, read-out: LC50) of 98.7 nM and a CC50 at 3 days ([18]; MCF12A cells (breast epithelium; HER2−; PIK3CA wild type), 50% net loss of cells vs time 0, read-out: LC50) of 2760 nM. The TGI ([19]; BT474, total growth inhibition) was 20.1 nM, the IC50 ([19]; Homo sapiens, BT-474, 72 h, BT474, three-day drug treatment, read-out: gIC50) was 4.8 nM and the CC50 ([19]; Homo sapiens, BT-474, BT474, 50% net loss of cells vs time 0, read-out: LC50 (the source's name)) was 119 nM. It also gave a TGI ([20]; HCC1187, total growth inhibition) of 35.5 nM, an IC50 ([20]; Homo sapiens, 72 h, HCC1187, three-day drug treatment, read-out: gIC50) of 4.9 nM and a CC50 ([20]; Homo sapiens, HCC1187, 50% net loss of cells vs time 0, read-out: LC50 (the source's name)) of 118 nM. For the same molecule, the IC50 ([21]; Homo sapiens, MDA-MB-157, 72 h, MDAMB157, three-day drug treatment, read-out: gIC50) was 398 nM, the CC50 ([21]; Homo sapiens, MDA-MB-157, MDAMB157, 50% net loss of cells vs time 0, read-out: LC50 (the source's name)) was > 33000 nM and the TGI ([21]; MDAMB157, total growth inhibition) was 3981.1 nM.
